Measurements from US20170304195A1, “PHARMACEUTICAL FORMULATIONS FOR THE ORAL DELIVERY OF PEPTIDE OR PROTEIN DRUGS” (Cyprumed GmbH, priority 2014, published 2017).
Structures can show the parent of a compound that is named as a salt.

Columns and labels:
[1] = In vitro compatibility of absorption enhancers with zinc sulfate (Example 16); format: physicochemical; conditions: absorption enhancer 10 mg/ml with desmopressin acetate and ZnSO4 5 mg/ml, in 2 ml aqua purificata, visual examination
Protocol: Solid dry powder mixtures of desmopressin acetate, zinc sulfate and different absorption enhancers were prepared and dissolved in 2 ml aqua purificata.

[2] = pH of dissolved solid powder mixtures (Example 17); format: physicochemical; conditions: lactose 50 mg, no buffer
[3] = Compatibility of absorption enhancers with Cu2+ and Cu+ salts (dissolution in aqueous medium); format: physicochemical; conditions: absorption enhancer 10 mg/ml
Description: Various absorption enhancers were screened regarding their compatibility with the trace element copper in the two main oxidation states as Cu^2+ and Cu^+.

[4] = Plasma liraglutide levels after mid-jejunum administration (Example 6, FIG. 1); format: in vivo, Sprague Dawley rats
Protocol: FIG. 1: Plasma liraglutide levels after intestinal (mid-jejunum) administration of different liraglutide formulations to rats (see Example 6).
Administration into Mid-Jejunum in Rats:
The wound margins were released from the base.
Dosing was performed slowly.
Correctness of the application was checked.
2.4 mg/kg of the polypeptide liraglutide were dosed into the mid-jejunum of anesthetized Sprague Dawley rats in the presence of the zwitter-ionic absorption enhancer lauroyl carnitine chloride (“LCC”) (20 mg/ml) with and without the addition of (i) the trace element CuSO4 (1 mg/ml) and the reducing agent sodium ascorbate (40 mg/ml) or (ii) the trace element ZnSO4 (1 mg/ml) and the reducing agent glutathione (40 mg/ml). All formulations further comprised Na2HPO4 to result in a neutral pH between 7 to 8.

[5] = Octreotide pharmacokinetics after s.c. or ileum administration (Example 9); format: in vivo, Sprague Dawley rats; conditions: for AUC(0-t): read-out: AUC(0-90) (converted)
Protocol: TRIS buffer was used to generate a neutral pH.
The octreotide plasma concentrations were determined using a commercial octreotide kit (AB Biolabs, USA, cat. number CEK 0110-01).

[6] = background statement, unformulated drug; cited from earlier work
[7] = Vancomycin pharmacokinetics after i.v. or ileum administration (Example 5); format: in vivo, Sprague Dawley rats; conditions: for AUC(0-t) / Cmax: anesthetized rats
Protocol: The vancomycin plasma concentrations were determined on biochemical autoanalyser Hitachi 912 using commercial vancomycin kit VANC2 (Roche Diagnostics GmbH, Germany). The absolute bioavailability (F) was calculated using equation F (%)=(AUCileum/AUCi.v.)×(Dosei.v./Doseileum)×100.

[8] = Human growth hormone formulation, pharmacokinetics after s.c. or ileum administration (Example 13); format: in vivo, Sprague Dawley rats
Protocol: The human growth hormone plasma concentrations were determined using commercial growth hormone sensitive human ELISA kit (Biovendor, EU, cat. number RMEE022).

[9] = CuSO4 1 mg/ml, sodium ascorbate 10 mg/ml
[10] = Sprague Dawley, rat, plasma, other: into distal small intestine (ileum), octreotide 0.92 mg/kg ileum (n = 8), lauroyl carnitine chloride 30 mg/ml, CuSO4 1 mg/ml, sodium ascorbate 30 mg/ml, TRIS 22.5 mg/ml
[11] = Sprague Dawley, rat, plasma, sc, octreotide 1 mg/kg s.c., anesthetized rats (n = 3)
[12] = Cu(I)Cl 1 mg/ml, sodium ascorbate 10 mg/ml
[13] = copper (I) acetate 1 mg/ml, sodium ascorbate 10 mg/ml
[14] = Sprague Dawley, rat, plasma, iv, vancomycin 5 mg/kg i.v.
[15] = Sprague Dawley, rat, plasma, vancomycin 20 mg/kg into ileum, lauroyl carnitine 50 mg/ml, CuSO4 1 mg/ml, sodium ascorbate 250 mg/ml
[16] = s.c. 1 ml/kg, 0.2 mg/ml human growth hormone, anaesthetized rats

Molecule: C[C@H](CCC(=O)O)[C@H]1CC[C@H]2[C@@H]3[C@H](O)C[C@@H]4C[C@H](O)CC[C@]4(C)[C@H]3C[C@H](O)[C@]12C [Cholic acid]
- Dissolution in aqueous medium (2 ml) [1]: Precipitation

Molecule: NC(=O)CC[C@@H]1NC(=O)[C@H](Cc2ccccc2)NC(=O)[C@H](Cc2ccc(O)cc2)NC(=O)CCSSC[C@@H](C(=O)N2CCC[C@H]2C(=O)N[C@H](CCCN=C(N)N)C(=O)NCC(N)=O)NC(=O)[C@H](CC(N)=O)NC1=O [Desmopressin, Desmopressin acetate]
- Dissolution pH in 5 ml Aqua purificata ([2]; CuSO4 10 mg, citric acid 10 mg): 2.6
- Dissolution pH in 5 ml Aqua purificata ([2]; CuSO4 10 mg, no absorption enhancer): 4.7
- Dissolution pH in 5 ml Aqua purificata ([2]; ZnSO4 10 mg, citric acid 10 mg): 2.7
- Dissolution pH in 5 ml Aqua purificata ([2]; ZnSO4 10 mg, no absorption enhancer): 5.5

Molecule: O=C(O)CN(CCN(CC(=O)O)CC(=O)O)CC(=O)O [EDTA, ethylenediaminetetraacetic acid]
- Dissolution in aqueous medium (2 ml) [3, 9]: Clear solution
- Dissolution in aqueous medium (2 ml) [1]: Clear solution

Molecule: CCCCCCCCCCCC(=O)OC(CC(=O)O)C[N+](C)(C)C.[Cl-] (stereo not drawn) [Lauroyl carnitine HCl]
- Dissolution in aqueous medium (2 ml) [1]: Clear solution

Molecule: CCCCCCCCCCCC(=O)OC(CC(=O)O)C[N+](C)(C)C.[Cl-] (stereo not drawn) [Lauroyl carnitine]
- Dissolution in aqueous medium (2 ml) ([3]; CuSO4 1 mg/ml, glutathione 10 mg/ml): Clear solution
- Dissolution in aqueous medium (2 ml) [3, 9]: Clear solution

Molecule: CCCCCCCCCCCCCCCC(=O)N[C@@H](CCC(=O)NCCCC[C@H](NC(=O)[C@H](C)NC(=O)[C@H](C)NC(=O)[C@H](CCC(N)=O)NC(=O)CNC(=O)[C@H](CCC(=O)O)NC(=O)[C@H](CC(C)C)NC(=O)[C@H](Cc1ccc(O)cc1)NC(=O)[C@H](CO)NC(=O)[C@H](CO)NC(=O)[C@@H](NC(=O)[C@H](CC(=O)O)NC(=O)[C@H](CO)NC(=O)[C@@H](NC(=O)[C@H](Cc1ccccc1)NC(=O)[C@@H](NC(=O)CNC(=O)[C@H](CCC(=O)O)NC(=O)[C@H](C)NC(=O)[C@@H](N)Cc1cnc[nH]1)[C@@H](C)O)[C@@H](C)O)C(C)C)C(=O)N[C@@H](CCC(=O)O)C(=O)N[C@@H](Cc1ccccc1)C(=O)N[C@H](C(=O)N[C@@H](C)C(=O)N[C@@H](Cc1c[nH]c2ccccc12)C(=O)N[C@@H](CC(C)C)C(=O)N[C@H](C(=O)N[C@@H](CCCNC(=N)N)C(=O)NCC(=O)N[C@@H](CCCNC(=N)N)C(=O)NCC(=O)O)C(C)C)[C@@H](C)CC)C(=O)O [Liraglutide, liraglutide]
- intestinal absorption of liraglutide (plasma levels, FIG. 1), in words ([4]; LCC 20 mg/ml + CuSO4 1 mg/ml + sodium ascorbate 40 mg/ml, compared with LCC alone): substantially increased the intestinal absorption
- liraglutide absorption (plasma levels, FIG. 1), in words ([4]; LCC 20 mg/ml + ZnSO4 1 mg/ml + glutathione 40 mg/ml, compared with LCC alone and with the Cu2+ composition): improved liraglutide absorption albeit less pronounced

Molecule: C[C@@H](O)[C@@H]1NC(=O)[C@H](CCCCN)NC(=O)[C@@H](Cc2c[nH]c3ccccc23)NC(=O)[C@H](Cc2ccccc2)NC(=O)[C@@H](NC(=O)[C@H](N)Cc2ccccc2)CSSC[C@@H](C(=O)N[C@H](CO)[C@@H](C)O)NC1=O [Octreotide]
- Cmax [5, 10]: 0.0258 ± 0.0142 µg/mL
- AUC(0-t) [5, 10]: 0.0251 µg·h/mL
- Cmax [5, 11]: 0.154 ± 0.0298 µg/mL
- AUC(0-t) [5, 11]: 0.167 µg·h/mL
- F rel ([5]; Sprague Dawley, rat, plasma, octreotide 0.92 mg/kg ileum, lauroyl carnitine chloride 30 mg/ml, CuSO4 1 mg/ml, sodium ascorbate 30 mg/ml, TRIS 22.5 mg/ml, vs s.c.): 16.3 ± 7.8%
- F ([5]; octreotide 1 mg/kg s.c. (reference)): 100 ± 18.3%
- bioavailability, in words ([5]; octreotide formulation with copper(II) salt, sodium ascorbate, lauroyl carnitine chloride): markedly increased bioavailability
- oral bioavailability [6]: less than 1%

Molecule: CCCCCCCCCC(=O)[O-].[Na+] [Sodium caprate]
- Dissolution in aqueous medium (2 ml) [3, 12]: Clear solution
- Dissolution in aqueous medium (2 ml) [3, 9]: Precipitation
- Dissolution in aqueous medium (2 ml) [3, 13]: Clear solution
- Dissolution in aqueous medium (2 ml) [1]: Precipitation

Molecule: CCCCCCCC(=O)[O-].[Na+] [Sodium caprylate]
- Dissolution in aqueous medium (2 ml) [3, 12]: Clear solution
- Dissolution in aqueous medium (2 ml) [3, 9]: Precipitation
- Dissolution in aqueous medium (2 ml) [3, 13]: Clear solution
- Dissolution in aqueous medium (2 ml) [1]: Precipitation

Molecule: C[C@H](CCC(=O)[O-])[C@H]1CC[C@H]2[C@@H]3[C@H](O)C[C@@H]4C[C@H](O)CC[C@]4(C)[C@H]3C[C@H](O)[C@]12C.[Na+] [Sodium cholate]
- Dissolution in aqueous medium (2 ml) [1]: Precipitation

Molecule: O=C([O-])CC(O)(CC(=O)[O-])C(=O)[O-].[Na+].[Na+].[Na+] [Sodium citrate]
- Dissolution in aqueous medium (2 ml) [3, 9]: Clear solution

Molecule: CCCCCCCCCCCCOS(=O)(=O)[O-].[Na+] [Sodium dodecyl sulfate]
- Dissolution in aqueous medium (2 ml) [3, 9]: Clear solution
- Dissolution in aqueous medium (2 ml) [1]: Clear solution

Molecule: O=C([O-])c1ccccc1O.[Na+] [Sodium salicylate]
- Dissolution in aqueous medium (2 ml) [3, 9]: Clear solution

Molecule: CN[C@H](CC(C)C)C(=O)N[C@H]1C(=O)N[C@@H](CC(N)=O)C(=O)N[C@H]2C(=O)N[C@H]3C(=O)N[C@H](C(=O)N[C@H](C(=O)O)c4cc(O)cc(O)c4-c4cc3ccc4O)[C@H](O)c3ccc(c(Cl)c3)Oc3cc2cc(c3O[C@@H]2O[C@H](CO)[C@@H](O)[C@H](O)[C@H]2O[C@H]2C[C@](C)(N)[C@H](O)[C@H](C)O2)Oc2ccc(cc2Cl)[C@H]1O [Vancomycin, Vancomycin hydrochloride]
- AUC(0-t) [7, 14]: 11 µg·h/mL
- Cmax [7, 14]: 8.8 ± 0.3 µg/mL
- AUC(0-t) [7, 15]: 3 µg·h/mL
- Cmax [7, 15]: 2.4 ± 0.2 µg/mL
- bioavailability ([7]; Sprague Dawley, rat, plasma, vancomycin 20 mg/kg into ileum, lauroyl carnitine 50 mg/ml, CuSO4 1 mg/ml, sodium ascorbate 250 mg/ml, vs i.v., read-out: F (absolute bioavailability)): 8 ± 0.4%
- F ([7]; vancomycin 5 mg/kg i.v. (reference)): 100 ± 7%
- bioavailability in comparison with published F values after oral administration, in words ([7]; vancomycin formulation with lauroyl carnitine, CuSO4, sodium ascorbate): increased markedly its bioavailability
- oral bioavailability [6]: ~0.1%

Molecule: CCCCCCCCCCCCO[C@@H]1O[C@H](CO)[C@@H](O[C@H]2O[C@H](CO)[C@@H](O)[C@H](O)[C@H]2O)[C@H](O)[C@H]1O [n-Dodecyl-beta-D-maltoside]
- Dissolution in aqueous medium (2 ml) [3, 9]: Clear solution
- Dissolution in aqueous medium (2 ml) [1]: Clear solution

Molecule: CCCCCCCCO[C@@H]1O[C@H](CO)[C@@H](O)[C@H](O)[C@H]1O [n-Octyl-beta-D-glucopyranoside]
- Dissolution in aqueous medium (2 ml) [3, 9]: Clear solution
- Dissolution in aqueous medium (2 ml) [1]: Clear solution

Molecule: Human growth hormone [hGH]
- AUC(0-t) [8, 16]: 7630 ± 471 ng·min/mL
- Cmax [8, 16]: 0.044 µg/mL
- Tmax [8, 16]: 30 min
- F ([8]; s.c. (reference)): 100 ± 6%

Molecule: Methyl-beta-cyclodextrin
- Dissolution in aqueous medium (2 ml) [3, 9]: Clear solution

Molecule: Sodium lauroyl sarcosinate
- Dissolution in aqueous medium (2 ml) [3, 9]: Precipitation
